In patent US20180044304A1, “1,3,4-OXADIAZOLE AND THIADIAZOLE COMPOUNDS AS IMMUNOMODULATORS” (AURIGENE DISCOVERY TECHNOLOGIES LIMITED, priority 2015, published 2018):

biological target: T1, Recombinant mouse PD-L1 (Mus musculus, UniProt Q9EP73); test: Rescue of mouse splenocyte proliferation in the presence of recombinant PD-L1 (CFSE proliferation assay); type: cell-based; conditions: 100 nM compound; anti-CD3/CD28 stimulated C57 BL6 mouse splenocytes with PD-L1; 72 h; stimulated splenocyte proliferation = 100%; read-out: Percent rescue of splenocyte proliferation (@100 nM compound concentration)
T1 construct: Fc (Fc chimera); purchased R&D Systems 1019-B7-100
Protocol: Rescue of Mouse Splenocyte Proliferation in the Presence of Recombinant PD-L1
Recombinant mouse PD-L1 (rm-PDL-1, cat no: 1019-B7-100; R&D Systems) were used as the source of PD-L1.
Mouse splenocytes harvested from 6-8 weeks old C57 BL6 mice; RPMI 1640 (GIBCO, Cat #11875); DMEM with high glucose (GIBCO, Cat #D6429); Fetal Bovine Serum [Hyclone, Cat #SH30071.03]; Penicillin (10000 unit/mL)-Streptomycin(10,000 μg/mL) Liquid (GIBCO, Cat #15140-122); MEM Sodium Pyruvate solution 100 mM (100×), Liquid (GIBCO, Cat #11360); Nonessential amino acid (GIBCO, Cat #11140); L-Glutamine (GIBCO, Cat #25030); Anti-CD3 antibody (eBiosciences—16-0032); Anti-CD28 antibody (eBiosciences—16-0281); ACK lysis buffer (1 mL) (GIBCO, Cat #-A10492); Histopaque (density-1.083 gm/mL) (SIGMA 10831); Trypan blue solution (SIGMA-T8154); 2 mL Norm Ject Luer Lock syringe-(Sigma 2014-12); 40 μm nylon cell strainer (BD FALCON 35230); Hemacytometer (Bright line-SIGMA Z359629); FACS Buffer (PBS/0.1% BSA): Phosphate Buffered Saline (PBS) pH 7.2 (HiMedia TS1006) with 0.1% Bovine Serum Albumin (BSA) (SIGMA A7050) and sodium azide (SIGMA 08591); 5 mM stock solution of CFSE: CFSE stock solution was prepared by diluting lyophilized CFSE with 180 μl of Dimethyl sulfoxide (DMSO C2H6SO, SIGMA-D-5879) and aliquoted in to tubes for further use. Working concentrations were titrated from 10 μM to 1 μM. (eBioscience-650850-85); 0.05% Trypsin and 0.02% EDTA (SIGMA 59417C); 96-well format ELISA plates (Corning CLS3390); BD FACS caliber (E6016); Recombinant mouse B7-H1/PDL1 Fc Chimera, (rm-PD-L1 cat no: 1019-B7-100).
Splenocytes harvested in a 50 mL falcon tube by mashing mouse spleen in a 40 μm cell strainer were further treated with 1 mL ACK lysis buffer for 5 min at room temperature. After washing with 9 mL of RPMI complete media, cells were re-suspended in 3 mL of 1× PBS in a 15 mL tube. 3 mL of Histopaque was added carefully to the bottom of the tube without disturbing overlaying splenocyte suspension. After centrifuging at 800×g for 20 min at room temperature, the opaque layer of splenocytes was collected carefully without disturbing/mixing the layers. Splenocytes were washed twice with cold 1× PBS followed by total cell counting using Trypan Blue exclusion method and used further for cell based assays.
Splenocytes were cultured in RPMI complete media (RPMI+10% fetal bovine serum+1 mM sodium pyruvate+10,000 units/mL penicillin and 10,000 μg/mL streptomycin) and maintained in a CO2 incubator with 5% CO2 at 37° C.
CFSE is a dye that passively diffuses into cells and binds to intracellular proteins. 1×10^6 cells/mL of harvested splenocytes were treated with 5 μM of CFSE in pre-warmed 1× PBS/0.1% BSA solution for 10 min at 37° C. Excess CFSE was quenched using 5 volumes of ice-cold culture media to the cells and incubated on ice for 5 min. CFSE labelled splenocytes were further given three washes with ice cold complete RPMI media. CFSE labelled 1×10^5 splenocytes added to wells containing either MDA-MB231 cells (1×10^5 cells cultured in high glucose DMEM medium) or recombinant human PDL-1 (100 ng/mL) and test compounds. Splenocytes were stimulated with anti-mouse CD3 and anti-mouse CD28 antibody (1 μg/mL each) and the culture was further incubated for 72 h at 37° C. with 5% CO2. Cells were harvested and washed thrice with ice cold FACS buffer and % proliferation was analysed by flow cytometry with 488 nm excitation and 521 nm emission filters.
Percent splenocyte proliferation was analysed using cell quest FACS program and percent rescue of splenocyte proliferation by compound was estimated after deduction of % background proliferation value and normalising to % stimulated splenocyte proliferation (positive control) as 100%. • Stimulated splenocytes: Splenocytes+anti-CD3/CD28 stimulation • Background proliferation: Splenocytes+anti-CD3/CD28+PD-L1 • Compound proliferation: Splenocytes+anti-CD3/CD28+PD-L1+Compound […]

T1 sequence (Q9EP73 with tags, fused parts or gaps limits assumed): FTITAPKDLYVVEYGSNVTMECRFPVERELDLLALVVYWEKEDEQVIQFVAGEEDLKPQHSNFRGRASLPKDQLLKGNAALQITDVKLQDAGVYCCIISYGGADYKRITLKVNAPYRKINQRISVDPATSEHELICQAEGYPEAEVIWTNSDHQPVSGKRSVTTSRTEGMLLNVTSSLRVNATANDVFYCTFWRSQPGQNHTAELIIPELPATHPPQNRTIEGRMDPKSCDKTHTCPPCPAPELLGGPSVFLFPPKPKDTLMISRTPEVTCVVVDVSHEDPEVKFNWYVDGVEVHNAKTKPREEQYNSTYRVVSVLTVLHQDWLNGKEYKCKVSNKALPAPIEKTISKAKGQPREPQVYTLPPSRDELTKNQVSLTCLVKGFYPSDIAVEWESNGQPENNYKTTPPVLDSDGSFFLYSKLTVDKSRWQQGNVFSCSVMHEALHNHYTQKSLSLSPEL

Row | SMILES | activation at 0.1 µM
1 | NCCCC[C@H](N)c1nnc([C@H](CC(N)=O)NC(=O)N[C@@H](CCC(=O)O)C(=O)O)o1 [Compound 1] | 79%
2 | CCC(C)[C@H](NC(=O)N[C@@H](CCC(=O)O)C(=O)O)c1nnc([C@@H](N)CCC(=O)O)o1 (stereo partly drawn) [Compound 2] | 49%
3 | CC(O)[C@H](NC(=O)N[C@@H](CC(N)=O)c1nnc([C@@H](N)CCCCN)o1)C(=O)O (stereo partly drawn) [Compound 4] | 70%
4 | CCC(C)[C@H](NC(=O)N[C@H](C(=O)O)C(C)O)c1nnc([C@@H](N)CO)o1 (stereo partly drawn) [Compound 5] | 16%
5 | CC(O)[C@H](NC(=O)N[C@@H](CCCCN)c1nnc([C@@H](N)CO)o1)C(=O)O (stereo partly drawn) [Compound 6] | 30%
6 | CC(O)[C@H](NC(=O)N[C@@H](Cc1ccccc1)c1nnc([C@@H](N)CO)o1)C(=O)O (stereo partly drawn) [Compound 7] | 29%
7 | N[C@@H](Cc1ccc(O)cc1)c1nnc([C@@H]2CCCN2C(=O)N[C@@H](Cc2ccc(O)cc2)C(=O)O)o1 [Compound 8] | 60%
8 | CC(O)[C@H](NC(=O)N[C@H](c1nnc([C@@H](N)C(C)O)o1)C(C)O)C(=O)O (stereo partly drawn) [Compound 9] | 29%
9 | NC(=O)C[C@H](NC(=O)N[C@@H](CC(=O)O)C(=O)O)c1nnc([C@@H](N)CO)o1 [Compound 10] | 34%
10 | NCCCC[C@H](N)c1nnc([C@H](CC(N)=O)NC(=O)N[C@@H](CO)C(=O)O)o1 [Compound 11] | 30%
11 | CCC(C)[C@H](N)c1nnc([C@@H](NC(=O)N[C@@H](CCC(=O)O)C(=O)O)C(C)CC)o1 (stereo partly drawn) [Compound 12] | 68%
12 | NCCCC[C@H](NC(=O)N[C@@H](CC(N)=O)c1nnc([C@@H](N)CO)o1)C(=O)O [Compound 13] | 29%
13 | NC(=O)C[C@H](NC(=O)N[C@@H](Cc1ccccc1)C(=O)O)c1nnc([C@@H](N)CO)o1 [Compound 15] | 23%
14 | CC(O)[C@H](NC(=O)N[C@@H](CC(N)=O)c1nnc([C@@H](N)CC(=O)O)o1)C(=O)O (stereo partly drawn) [Compound 16] | 37%
15 | CC(O)[C@H](NC(=O)N[C@@H](CCC(=O)O)c1nnc([C@@H](N)CCCCN)o1)C(=O)O (stereo partly drawn) [Compound 18] | 41%
16 | NC(=O)CC[C@H](NC(=O)N[C@@H](CO)c1nnc([C@@H](N)Cc2c[nH]c3ccccc23)o1)C(=O)O [Compound 20] | 74%
17 | CSC[C@H](N)c1nnc([C@H](CC(N)=O)NC(=O)N[C@H](C(=O)O)C(C)O)o1 (stereo partly drawn) [Compound 24] | 47%
18 | N[C@@H](CO)c1nnc([C@H](Cc2c[nH]c3ccccc23)NC(=O)N[C@@H](CC(=O)O)C(=O)O)o1 [Compound 28] | 66%
